In PubChem BioAssay (NCI) one finds GI50 and TGI data, which are given here for 8 compounds.

Among the test systems are NCI-H522 lung; SNB-19 CNS; A498 renal; CAKI-1 renal; NCI-H23 lung; PC-3 prostate; KM12 colon; OVCAR-4 ovarian; SN12C renal; HCT-15 colon.
What all share (test): NCI tumour cell line growth inhibition, 48 h

Several values for one entry are separate records, joined by “and”; a condition that tells them apart may be missing. Identical values can stand only once.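 In this assay, cells in 96-well plates receive the compound at five concentrations for 48 hours. Endpoints are linearly interpolated between the surrounding concentrations. Abbreviation: GI50, concentration required for 50% inhibition of growth. TGI: total growth inhibition.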

For the compound `COc1ccc(/C(C)=C(\c2ccc(Cl)cc2)c2ccc(OCCN3CCCC3)cc2)cc1`, the GI50 was 4.39 µM in the experiment on NCI-H522 lung; 4.54 µM in the experiment with SNB-19 CNS; 4.02 µM with A498 renal; 4.85 µM with CAKI-1 renal; 4.29 µM with NCI-H23 lung; 3.39 µM in the experiment on PC-3 prostate. Moreover, the GI50 in the experiment on KM12 colon is 1.98 µM; in the experiment on OVCAR-4 ovarian, 3.61 µM; in the experiment on SN12C renal, 4.9 µM; in the experiment on HCT-15 colon, 1.09 µM. The TGI in the experiment with NCI-H522 lung is 9.11 µM; with SNB-19 CNS it was 9.09 µM; in the experiment on A498 renal, 8.38 µM; with CAKI-1 renal, 9.29 µM; in the experiment on NCI-H23 lung it was 8.98 µM; with PC-3 prostate it was 7.52 µM. Besides, the TGI in the experiment on KM12 colon stood at 6.6 µM; in the experiment on OVCAR-4 ovarian, 7.64 µM; in the experiment on SN12C renal, 9.63 µM; in the experiment on HCT-15 colon, 4.35 µM.

`CC(C)C[C@H](NC(=O)[C@H](CCc1ccccc1)NC(=O)CN1CCOCC1)C(=O)N[C@@H](Cc1ccccc1)C(=O)N[C@@H](CC(C)C)C(=O)[C@@]1(C)CO1`: the GI50 in the experiment with NCI-H522 lung is < 0.01 µM; in the experiment on SNB-19 CNS it was < 0.0164 µM; with A498 renal, 0.0227 µM; in the experiment with CAKI-1 renal, 0.109 µM; in the experiment on NCI-H23 lung, < 0.015 µM; in the experiment on PC-3 prostate, 0.0247 µM. In addition, the GI50 is < 0.01 µM in the experiment on KM12 colon, < 0.0117 µM with OVCAR-4 ovarian, < 0.0132 µM in the experiment on SN12C renal and 0.083 µM with HCT-15 colon. Besides, the TGI with NCI-H522 lung was 0.0239 µM; with SNB-19 CNS, > 100 µM; in the experiment on A498 renal, 0.0987 µM; in the experiment on CAKI-1 renal, 0.781 µM; with NCI-H23 lung, 0.115 µM; in the experiment with PC-3 prostate, 0.305 µM. Further, the figures for the TGI in the experiment with KM12 colon, with SN12C renal and in the experiment with HCT-15 colon were 0.0199 µM, 0.0349 µM and 1.6 µM, respectively.

For `C#CCN1C(=O)/C(=c2\sc3n(c2=O)C2C(NN=3)N(CC)C(=O)N2CC)c2ccccc21` (configuration not stated), the GI50 in the experiment on NCI-H522 lung was 0.447 µM; in the experiment with SNB-19 CNS, 0.811 µM; in the experiment with A498 renal it was 0.186 µM; in the experiment on CAKI-1 renal it was 0.459 µM; in the experiment with NCI-H23 lung it was 1.51 µM; in the experiment on PC-3 prostate, 0.463 µM. For the same compound, the GI50 was 0.46 µM in the experiment with KM12 colon, > 27.3 µM in the experiment with OVCAR-4 ovarian, 0.797 µM in the experiment on SN12C renal and 0.394 µM in the experiment on HCT-15 colon. Further, the TGI was > 76 µM with NCI-H522 lung; > 100 µM in the experiment on SNB-19 CNS; 0.728 µM in the experiment with A498 renal; > 54.2 µM in the experiment on CAKI-1 renal; 37.2 µM in the experiment on NCI-H23 lung; > 100 µM in the experiment with PC-3 prostate. Further, the TGI in the experiment on KM12 colon, with OVCAR-4 ovarian, in the experiment with SN12C renal and in the experiment with HCT-15 colon was > 100 µM throughout.

Take `Nc1ncnc2c1c(C(F)(F)F)cn2[C@@H]1O[C@H](CO)[C@@H](O)[C@H]1O`: the GI50 in the experiment on NCI-H522 lung was 0.319 µM; in the experiment on SNB-19 CNS, 0.793 µM; in the experiment on A498 renal, 0.0936 µM; with CAKI-1 renal, 0.49 µM; in the experiment on NCI-H23 lung, 0.153 µM; in the experiment on PC-3 prostate, 0.0725 µM. Also, the GI50 in the experiment with KM12 colon is 0.134 µM; with OVCAR-4 ovarian, 1.03 µM; with SN12C renal, 0.157 µM; in the experiment with HCT-15 colon, 0.197 µM. Further, the TGI was 3.15 µM in the experiment on NCI-H522 lung; > 100 µM in the experiment with SNB-19 CNS; 1.95 µM with A498 renal; > 100 µM in the experiment on CAKI-1 renal; 5.29 µM in the experiment on NCI-H23 lung; > 100 µM in the experiment with OVCAR-4 ovarian. Besides, the TGI with SN12C renal and in the experiment on HCT-15 colon was > 100 µM each time.

As for `C(=N\Nc1nnc2c(n1)[nH]c1ccccc12)/c1cccnc1`, the TGI with NCI-H522 lung, in the experiment with SNB-19 CNS, in the experiment on A498 renal, in the experiment on CAKI-1 renal, in the experiment with NCI-H23 lung and in the experiment on PC-3 prostate was > 100 µM in each case. Also, the TGI in the experiment on KM12 colon, in the experiment on OVCAR-4 ovarian, in the experiment with SN12C renal and in the experiment on HCT-15 colon was > 100 µM throughout.

As for `NC(=O)CCC(NC(=O)OCc1ccccc1)C(=O)OCC(=O)c1ccccc1` (configuration not stated), the GI50 in the experiment on NCI-H522 lung, in the experiment on SNB-19 CNS, with A498 renal, with CAKI-1 renal, in the experiment on NCI-H23 lung and in the experiment on PC-3 prostate was > 100 µM throughout. In addition, the GI50 with KM12 colon, with OVCAR-4 ovarian, with SN12C renal and in the experiment on HCT-15 colon was > 100 µM each time. For the same compound, the TGI with NCI-H522 lung, in the experiment on SNB-19 CNS, in the experiment with A498 renal, in the experiment on CAKI-1 renal, with NCI-H23 lung and in the experiment with PC-3 prostate was > 100 µM throughout. Further, the TGI in the experiment on KM12 colon, in the experiment with OVCAR-4 ovarian, in the experiment with SN12C renal and in the experiment with HCT-15 colon was > 100 µM in each case.

Consider `CCCS(=O)(=O)Nc1ccc(F)c(C(=O)c2c[nH]c3ncc(-c4ccc(Cl)cc4)cc23)c1F`, for which the GI50 is 7.14 µM and > 7.96 µM in the experiment on NCI-H522 lung; 6.56 µM and > 10 µM in the experiment on SNB-19 CNS; 1.72 µM and 2.59 µM with A498 renal; 2.63 µM and 2.81 µM with CAKI-1 renal; 7.82 µM and > 10 µM in the experiment with NCI-H23 lung; 2.98 µM and 6.01 µM in the experiment with PC-3 prostate. Moreover, the GI50 is 4.17 µM and 6.02 µM with KM12 colon; 6.13 µM and > 7.33 µM with OVCAR-4 ovarian; 4.52 µM and > 8.4 µM with SN12C renal; 4.45 µM and 4.1 µM with HCT-15 colon. The TGI was 22.3 µM and > 10 µM in the experiment with NCI-H522 lung; 29.6 µM and > 10 µM in the experiment on SNB-19 CNS; 12.3 µM and > 8.97 µM with A498 renal; 16.5 µM and > 10 µM in the experiment on CAKI-1 renal; 26.6 µM and > 10 µM in the experiment with NCI-H23 lung; 16.7 µM and > 10 µM with PC-3 prostate. The TGI in the experiment on KM12 colon was 16.8 µM and > 10 µM; in the experiment with OVCAR-4 ovarian, 25.7 µM and > 10 µM; in the experiment on SN12C renal it was 21.9 µM and > 10 µM; with HCT-15 colon it was 17.7 µM and > 10 µM.

As for `CN1/C(=C\C(I)C(I)C2=[N+](C)c3ccccc3C2(C)C)C(C)(C)c2ccccc21` (configuration not stated), the GI50 in the experiment with NCI-H522 lung was 0.257 µM; in the experiment with SNB-19 CNS, 0.291 µM; in the experiment on A498 renal it was 0.178 µM; in the experiment on CAKI-1 renal it was 0.974 µM; in the experiment with NCI-H23 lung it was 0.114 µM; in the experiment with PC-3 prostate it was 0.177 µM. For the same compound, the GI50 is 0.33 µM in the experiment on KM12 colon, 0.25 µM in the experiment on OVCAR-4 ovarian, 0.277 µM in the experiment on SN12C renal and 0.997 µM with HCT-15 colon. Besides, the TGI is 10.2 µM in the experiment with NCI-H522 lung; 40.3 µM in the experiment on SNB-19 CNS; 1.49 µM in the experiment with A498 renal; > 38.6 µM with CAKI-1 renal; 9.33 µM in the experiment on NCI-H23 lung; 12.3 µM in the experiment with PC-3 prostate. Also, the TGI is 11.8 µM in the experiment with KM12 colon, 22.5 µM in the experiment on OVCAR-4 ovarian, 9.86 µM with SN12C renal and > 37.6 µM in the experiment with HCT-15 colon.
